These are literature values, as cited in patent US20240226372A1, “HYDROPHILIC POLY(THIOKETAL) URETHANE SCAFFOLDS AND METHODS OF USE THEREOF” (Vanderbilt University, priority 2021, published 2024).

This data set relates to osteoblasts. Also noted: dose or concentration left out as unconfirmed. The note with it: 21 antibiotics.

Consider `CN[C@H](CC(C)C)C(=O)N[C@H]1C(=O)N[C@@H](CC(N)=O)C(=O)N[C@H]2C(=O)N[C@H]3C(=O)N[C@H](C(=O)N[C@H](C(=O)O)c4cc(O)cc(O)c4-c4cc3ccc4O)[C@H](O)c3ccc(c(Cl)c3)Oc3cc2cc(c3O[C@@H]2O[C@H](CO)[C@@H](O)[C@H](O)[C@H]2O[C@H]2C[C@](C)(N)[C@H](O)[C@H](C)O2)Oc2ccc(cc2Cl)[C@H]1O` [vancomycin], for which the “effects on osteoblast function” value is “least detrimental effects”.
